Results: ChEMBL document CHEMBL1155107, “Oxidative transformation of 2-acetylaminofluorene by a chemical model for cytochrome P450: A water-insoluble porphyrin and tert-butyl hydroperoxide” (Bioorg Med Chem, 2008)

System: Salmonella typhimurium
Assay: Toxicity in Salmonella Typhimurium TA1538 assessed as induction of mutagenicity using cytochrome P450 chemical model after 44 hrs by Ames test
Type: organism-based
Settings: salmonella enterica subsp. enterica serovar typhimurium

SMILES: CC(=O)Nc1ccc2c(c1)Cc1ccccc1-2 [2-ACETYLAMINOFLUORENE]
- Activity: Dose-dependent effect
